Assay results as given in patent US20100317647A1 (priority 2009, published 2010).
pIC50: −log10 of the molar value.

Biological target: human Cat S (Homo sapiens, UniProt P25774)
Assay: Cathepsin enzyme inhibition assay (fluorogenic peptide substrate cleavage)
Format: biochemical
Conditions: human Cat S 1 nM; substrate Z-Val-Val-Arg-AMC 20 μM; pH 6.5; fluorescence over 20 minutes
Method in brief: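 IC50 values derived from fluorescence increase (ex 360 nm, em 465 nm) monitored for 20 minutes after substrate addition. Enzyme held at 1 nM with 20 μM Z-Val-Val-Arg-AMC, in pH 6.5 potassium phosphate buffer containing DTT, EDTA and Triton X-100.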

Chain of human Cat S (P25774 115-331): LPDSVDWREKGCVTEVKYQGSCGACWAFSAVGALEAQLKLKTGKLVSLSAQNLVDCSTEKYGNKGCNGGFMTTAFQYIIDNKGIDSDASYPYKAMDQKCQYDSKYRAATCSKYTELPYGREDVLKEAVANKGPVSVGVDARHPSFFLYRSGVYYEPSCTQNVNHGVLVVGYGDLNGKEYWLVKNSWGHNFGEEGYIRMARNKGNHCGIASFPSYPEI

| Compound | pIC50 |
| --- | --- |
| Cc1cc(-c2ccc(S(=O)(=O)[C@@H]3C[C@@H](C(=O)NC4(C#N)CC4)[C@H](C(=O)N4CC(F)(F)C4)C3)c(C(F)(F)F)c2)ccn1 [Example 121, (1R,2R,4R)-2-(3,3-Difluoro-azetidine-1-carbonyl)-4-[4-(2-methyl-pyridin-4-yl)-2-trifluoromethyl-benzenesulfonyl]-cyclopentanecarboxylic acid (1-cyano-cyclopropyl)-amide] | 9.70 |
| N#CC1(NC(=O)[C@@H]2C[C@@H](S(=O)(=O)c3ccc(-c4cncc(Cl)n4)cc3C(F)(F)F)C[C@H]2C(=O)N2CC(F)(F)C2)CC1 [Example 123, (1R,2R,4R)-4-[4-(6-Chloro-pyrazin-2-yl)-2-trifluoromethyl-benzenesulfonyl]-2-(3,3-difluoro-azetidine-1-carbonyl)-cyclopentanecarboxylic acid (1-cyano-cyclopropyl)-amide] | 10.00 |
| Cn1nccc1-c1ccc(S(=O)(=O)[C@@H]2C[C@@H](C(=O)NC3(C#N)CC3)[C@H](C(=O)N3CC(F)(F)C3)C2)c(C(F)(F)F)c1 [Example 124, (1R,2R,4R)-2-(3,3-Difluoro-azetidine-1-carbonyl)-4-[4-(2-methyl-2H-pyrazol-3-yl)-2-trifluoromethyl-benzenesulfonyl]-cyclopentanecarboxylic acid (1-cyano-cyclopropyl)-amide] | 9.70 |
| N#CC1(NC(=O)[C@@H]2C[C@@H](S(=O)(=O)c3ccc(C4CC4)cc3C(F)(F)F)C[C@H]2C(=O)N2CC(F)(F)C2)CC1 [Example 125, (1R,2R,4R)-4-(4-Cyclopropyl-2-trifluoromethyl-benzenesulfonyl)-2-(3,3-difluoro-azetidine-1-carbonyl)-cyclopentanecarboxylic acid (1-cyano-cyclopropyl)-amide] | 9.52 |
| N#CC1(NC(=O)[C@@H]2C[C@@H](S(=O)(=O)c3ccc(-c4cncc(-c5cnc(Cl)cn5)n4)cc3C(F)(F)F)C[C@H]2C(=O)N2CC(F)(F)C2)CC1 [Example 126, (1R,2R,4R)-4-[4-(5′-Chloro-[2,2]bipyrazinyl-6-yl)-2-trifluoromethyl-benzenesulfonyl]-2-(3,3-difluoro-azetidine-1-carbonyl)-cyclopentanecarboxylic acid (1-cyano-cyclopropyl)-amide] | 9.22 |
| N#CC1(NC(=O)C2CC(S(=O)(=O)c3ccc(OC4COC4)cc3C(F)(F)F)CC2C(=O)N2CC(F)(F)C2)CC1 (stereo not drawn) [Example 127, 2-(3,3-Difluoro-azetidine-1-carbonyl)-4-[4-(oxetan-3-yloxy)-2-trifluoromethyl-benzenesulfonyl]-cyclopentanecarboxylic acid (1-cyano-cyclopropyl)-amide] | 8.96 |
| N#CC1(NC(=O)C2CC(S(=O)(=O)c3ccc(-n4cccn4)cc3C(F)(F)F)CC2C(=O)N2CC(F)(F)C2)CC1 (stereo not drawn) [Example 128, 2-(3,3-Difluoro-azetidine-1-carbonyl)-4-(4-pyrazol-1-yl-2-trifluoromethyl-benzenesulfonyl)-cyclopentanecarboxylic acid (1-cyano-cyclopropyl)-amide] | 9.15 |
| N#CC1(NC(=O)[C@@H]2C[C@@H](S(=O)(=O)c3ccc(N4CCN(C5CC5)CC4)cc3C(F)(F)F)C[C@H]2C(=O)N2CC(F)(F)C2)CC1 [Example 129, (1R,2R,4R)-4-[4-(4-Cyclopropyl-piperazin-1-yl)-2-trifluoromethyl-benzenesulfonyl]-2-(3,3-difluoro-azetidine-1-carbonyl)-cyclopentanecarboxylic acid (1-cyano-cyclopropyl)-amide] | 9.22 |
| CC(C)(C)N1CCN(c2ccc(S(=O)(=O)[C@@H]3C[C@@H](C(=O)NC4(C#N)CC4)[C@H](C(=O)N4CC(F)(F)C4)C3)c(C(F)(F)F)c2)CC1 [Example 130, (1R,2R,4R)-4-[4-(4-tert-Butyl-piperazin-1-yl)-2-trifluoromethyl-benzenesulfonyl]-2-(3,3-difluoro-azetidine-1-carbonyl)-cyclopentanecarboxylic acid (1-cyano-cyclopropyl)-amide] | 9.40 |
| CC(=O)N1CCN(c2ccc(S(=O)(=O)C3CC(C(=O)NC4(C#N)CC4)C(C(=O)N4CC(F)(F)C4)C3)c(C(F)(F)F)c2)CC1 (stereo not drawn) [Example 131, 4-[4-(4-Acetyl-piperazin-1-yl)-2-trifluoromethyl-benzenesulfonyl]-2-(3,3-difluoro-azetidine-1-carbonyl)-cyclopentanecarboxylic acid (1-cyano-cyclopropyl)-amide] | 8.92 |
| N#CC1(NC(=O)C2CC(S(=O)(=O)c3ccc(N4CCC(F)(F)C4)cc3C(F)(F)F)CC2C(=O)N2CC(F)(F)C2)CC1 (stereo not drawn) [Example 132, 2-(3,3-Difluoro-azetidine-1-carbonyl)-4-[4-(3,3-difluoro-pyrrolidin-1-yl)-2-trifluoromethyl-benzenesulfonyl]-cyclopentanecarboxylic acid (1-cyano-cyclopropyl)-amide] | 8.92 |
| N#CC1(NC(=O)[C@@H]2C[C@@H](S(=O)(=O)c3ccc(N4CC5(COC5)C4)cc3C(F)(F)F)C[C@H]2C(=O)N2CC(F)(F)C2)CC1 [Example 133, (1R,2R,4R)-2-(3,3-Difluoro-azetidine-1-carbonyl)-4-[4-(2-oxa-6-aza-spiro[3.3]hept-6-yl)-2-trifluoromethyl-benzenesulfonyl]-cyclopentanecarboxylic acid (1-cyano-cyclopropyl)-amide] | 9.30 |

The remaining lines, values ahead:

| pIC50 | Compound |
| --- | --- |
| 9.70 | N#CC1(NC(=O)[C@@H]2C[C@@H](S(=O)(=O)c3ccc(-c4ccnc(Cl)c4)cc3C(F)(F)F)C[C@H]2C(=O)N2CC(F)(F)C2)CC1 [Example 122, (1R,2R,4R)-4-[4-(2-Chloro-pyridin-4-yl)-2-trifluoromethyl-benzenesulfonyl]-2-(3,3-difluoro-azetidine-1-carbonyl)-cyclopentanecarboxylic acid (1-cyano-cyclopropyl)-amide] |
| 8.85 | N#CC1(NC(=O)[C@@H]2C[C@@H](S(=O)(=O)c3ccc(OCC(F)(F)F)cc3Cl)C[C@H]2C(=O)N2CC(F)(F)C2)CC1 [Example 134, (1R,2R,4R)-4-[2-Chloro-4-(2,2,2-trifluoro-ethoxy)-benzenesulfonyl]-2-(3,3-difluoro-azetidine-1-carbonyl)-cyclopentanecarboxylic acid (1-cyano-cyclopropyl)-amide] |
| 8.62 | C[C@H](Oc1ccc(S(=O)(=O)[C@@H]2C[C@@H](C(=O)NC3(C#N)CC3)[C@H](C(=O)N3CC(F)(F)C3)C2)c(Cl)c1)C(F)(F)F [Example 135, (1R,2R,4R)-4-[2-Chloro-4-((S)-2,2,2-trifluoro-1-methyl-ethoxy)-benzenesulfonyl]-2-(3,3-difluoro-azetidine-1-carbonyl)-cyclopentanecarboxylic acid (1-cyano-cyclopropyl)-amide] |
| 8.89 | N#CC1(NC(=O)[C@@H]2C[C@@H](S(=O)(=O)c3ccc(N4CC(F)(F)C4)cc3Cl)C[C@H]2C(=O)N2CC(F)(F)C2)CC1 [Example 136, (1R,2R,4R)-4-[2-Chloro-4-(3,3-difluoro-azetidin-1-yl)-benzenesulfonyl]-2-(3,3-difluoro-azetidine-1-carbonyl)-cyclopentanecarboxylic acid (1-cyano-cyclopropyl)-amide] |
| 9.40 | CO[C@@H]1C[C@H](S(=O)(=O)c2ccc(-c3cnn(C)c3)cc2C(F)(F)F)C[C@H]1C(=O)NC1(C#N)CC1 [Example 138, (1R,2R,4R)-2-Methoxy-4-[4-(1-methyl-1H-pyrazol-4-yl)-2-trifluoromethyl-benzenesulfonyl]-cyclopentanecarboxylic acid (1-cyano-cyclopropyl)-amide] |
| 9.52 | CO[C@@H]1C[C@H](S(=O)(=O)c2ccc(-c3ccnc(C)c3)cc2C(F)(F)F)C[C@H]1C(=O)NC1(C#N)CC1 [Example 139, (1R,2R,4R)-2-Methoxy-4-[4-(2-methyl-pyridin-4-yl)-2-trifluoromethyl-benzenesulfonyl]-cyclopentanecarboxylic acid (1-cyano-cyclopropyl)-amide] |
| 9.64 | CCN1CCN(c2ccc(S(=O)(=O)[C@H]3C[C@@H](COc4ccc(F)cc4)[C@H](C(=O)NCC#N)C3)c(Cl)c2)CC1 [Example 147, (1R,2R,4S)-4-[2-Chloro-4-(4-ethyl-piperazin-1-yl)-benzenesulfonyl]-2-(4-fluoro-phenoxymethyl)-cyclopentanecarboxylic acid cyanomethyl-amide] |
| 6.29 | N#CC1(NC(=O)[C@@H]2C[C@H](S(=O)(=O)c3ccccc3Cl)C[C@H]2CN2CCC(c3ccc(F)cc3)CC2)CC1 [Example 148, (1R,2R,4R)-4-(2-Chloro-benzenesulfonyl)-2-[4-(4-fluoro-phenyl)-piperidin-1-ylmethyl]-cyclopentanecarboxylic acid (1-cyano-cyclopropyl)-amide] |
| 8.38 | N#CC1(NC(=O)[C@@H]2C[C@@H](S(=O)(=O)c3ccc(Br)cc3C(F)(F)F)C[C@H]2COC=O)CC1 [Example 152, Formic acid (1R,2R,4S)-4-(4-bromo-2-trifluoromethyl-benzenesulfonyl)-2-(1-cyano-cyclopropylcarbamoyl)-cyclopentylmethyl ester] |
| 7.59 | COc1ccc(COC[C@@H]2C[C@H](S(=O)(=O)c3ccc(F)cc3Cl)C[C@H]2C(=O)NC2(C#N)CC2)cc1 [Example 153, (1R,2R,4S)-4-(2-Chloro-4-fluoro-benzenesulfonyl)-2-(4-methoxy-benzyloxymethyl)-cyclopentanecarboxylic acid (1-cyano-cyclopropyl)-amide] |
| 6.97 | N#CC1(NC(=O)[C@@H]2C[C@@H](S(=O)(=O)c3ccc(F)cc3Cl)C[C@H]2CO)CC1 [Example 155, (1R,2R,4S)-4-(2-Chloro-4-fluoro-benzenesulfonyl)-2-hydroxymethyl-cyclopentanecarboxylic acid (1-cyano-cyclopropyl)-amide] |
| 7.50 | CC(C)OC[C@@H]1C[C@H](S(=O)(=O)c2ccc(F)cc2Cl)C[C@H]1C(=O)NC1(C#N)CC1 [Example 156, (1R,2R,4S)-4-(2-Chloro-4-fluoro-benzenesulfonyl)-2-isopropoxymethyl-cyclopentanecarboxylic acid (1-cyano-cyclopropyl)-amide] |
